In paper PMC11249646, “Small-Molecule Disruptors of the Interaction between Calcium- and Integrin-Binding Protein 1 and Integrin αIIbβ3 as Novel Antiplatelet Agents” (ACS Pharmacology & Translational Science, 2024):

molecular target: T1, GST-CIB1 : F-scrambled peptide (Homo sapiens, UniProt Q99828); assay: FP scrambled-peptide counter screen, 384-well format; assay type: binding; details: F-scrambled peptide
T1 construct: made in house; host or cells: BL-21 plus RIL cells (E. coli)
T1 sequence (Q99828 1-191): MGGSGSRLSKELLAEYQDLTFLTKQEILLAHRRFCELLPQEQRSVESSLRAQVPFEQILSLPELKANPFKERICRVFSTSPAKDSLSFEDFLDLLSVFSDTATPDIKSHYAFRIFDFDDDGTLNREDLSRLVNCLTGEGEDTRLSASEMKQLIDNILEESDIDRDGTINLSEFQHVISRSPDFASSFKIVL

Structure (SMILES) | 384-well COUNTERSCREEN Efficacy (%)
Cc1ccccc1S(=O)(=O)Nc1cnccc1C(=O)Nc1nc(-c2ccccc2)cs1.O=C(O)C(F)(F)F [NCGC00344941-01] | 20%
O=C(Nc1nc(-c2ccccc2)cs1)c1ccncc1NS(=O)(=O)c1ccccc1Cl.O=C(O)C(F)(F)F [NCGC00344943-01] | 31%
Cc1cc(S(=O)(=O)Nc2cnccc2C(=O)Nc2nc(-c3ccccc3)cs2)c(C)o1.O=C(O)C(F)(F)F [NCGC00345029-01] | 16%

same assay, conditions: F-scrambled peptide; *: Curve in opposite direction

Structure (SMILES) | 384-well COUNTERSCREEN Confirm?
Cc1ccccc1S(=O)(=O)Nc1cnccc1C(=O)Nc1nc(-c2ccccc2)cs1.O=C(O)C(F)(F)F [NCGC00344941-01] | YES
O=C(Nc1nc(-c2ccccc2)cs1)c1ccncc1NS(=O)(=O)c1ccccc1Cl.O=C(O)C(F)(F)F [NCGC00344943-01] | YES
Cc1cc(S(=O)(=O)Nc2cnccc2C(=O)Nc2nc(-c3ccccc3)cs2)c(C)o1.O=C(O)C(F)(F)F [NCGC00345029-01] | YES

same assay, conditions: F-scrambled peptide; read-out: 384-well COUNTERSCREEN IC50

Structure (SMILES) | IC50
Cc1ccccc1S(=O)(=O)Nc1cnccc1C(=O)Nc1nc(-c2ccccc2)cs1.O=C(O)C(F)(F)F [NCGC00344941-01] | > 120 µM
O=C(Nc1nc(-c2ccccc2)cs1)c1ccncc1NS(=O)(=O)c1ccccc1Cl.O=C(O)C(F)(F)F [NCGC00344943-01] | > 120 µM
Cc1cc(S(=O)(=O)Nc2cnccc2C(=O)Nc2nc(-c3ccccc3)cs2)c(C)o1.O=C(O)C(F)(F)F [NCGC00345029-01] | > 120 µM

molecular target: T2, CIB1 and αIIb interaction (GST-CIB1 : F-αIIb peptide) (Homo sapiens, UniProt Q99828); assay: FP assay, 384-well format (screen); assay type: binding; set-up: 384-well SCREEN Efficacy (%): concentration or dose not given beside the values; details: F-αIIb peptide
T2 construct: made in house; host or cells: BL-21 plus RIL cells (E. coli)
T2 sequence (Q99828 1-191): T1 sequence (Q99828 1-191)

Structure (SMILES) | 384-well SCREEN Efficacy (%)
Cc1ccccc1S(=O)(=O)Nc1cnccc1C(=O)Nc1nc(-c2ccccc2)cs1.O=C(O)C(F)(F)F [NCGC00344941-01] | 35%
O=C(Nc1nc(-c2ccccc2)cs1)c1ccncc1NS(=O)(=O)c1ccccc1Cl.O=C(O)C(F)(F)F [NCGC00344943-01] | 32%
Cc1cc(S(=O)(=O)Nc2cnccc2C(=O)Nc2nc(-c3ccccc3)cs2)c(C)o1.O=C(O)C(F)(F)F [NCGC00345029-01] | 42%

same assay, conditions: F-αIIb peptide; YES/NO

Structure (SMILES) | 384-well SCREEN Confirm?
Cc1ccccc1S(=O)(=O)Nc1cnccc1C(=O)Nc1nc(-c2ccccc2)cs1.O=C(O)C(F)(F)F [NCGC00344941-01] | YES
O=C(Nc1nc(-c2ccccc2)cs1)c1ccncc1NS(=O)(=O)c1ccccc1Cl.O=C(O)C(F)(F)F [NCGC00344943-01] | YES
Cc1cc(S(=O)(=O)Nc2cnccc2C(=O)Nc2nc(-c3ccccc3)cs2)c(C)o1.O=C(O)C(F)(F)F [NCGC00345029-01] | YES

same assay, conditions: F-αIIb peptide; read-out: 384-well SCREEN IC50

Structure (SMILES) | IC50
Cc1ccccc1S(=O)(=O)Nc1cnccc1C(=O)Nc1nc(-c2ccccc2)cs1.O=C(O)C(F)(F)F [NCGC00344941-01] | 17.8 µM
O=C(Nc1nc(-c2ccccc2)cs1)c1ccncc1NS(=O)(=O)c1ccccc1Cl.O=C(O)C(F)(F)F [NCGC00344943-01] | 15.8 µM
Cc1cc(S(=O)(=O)Nc2cnccc2C(=O)Nc2nc(-c3ccccc3)cs2)c(C)o1.O=C(O)C(F)(F)F [NCGC00345029-01] | 20 µM

molecular target: T3, CIB1 and αIIb interaction (CIB1-GST : F-αIIb peptide) (Homo sapiens, UniProt Q99828); assay: FP assay, 1536-well qHTS format (primary and confirmatory screen); assay type: binding; details: confirmatory screen, YES/NO call
T3 construct: made in house; host or cells: BL-21 plus RIL cells (E. coli)
T3 sequence (Q99828 1-191): T1 sequence (Q99828 1-191)

Structure (SMILES) | CONFIRMATORY SCREEN Confirm?
Cc1ccccc1S(=O)(=O)Nc1cnccc1C(=O)Nc1nc(-c2ccccc2)cs1.O=C(O)C(F)(F)F [NCGC00344941-01] | YES
O=C(Nc1nc(-c2ccccc2)cs1)c1ccncc1NS(=O)(=O)c1ccccc1Cl.O=C(O)C(F)(F)F [NCGC00344943-01] | YES
Cc1cc(S(=O)(=O)Nc2cnccc2C(=O)Nc2nc(-c3ccccc3)cs2)c(C)o1.O=C(O)C(F)(F)F [NCGC00345029-01] | YES

same assay, conditions: confirmatory screen, qHTS curve class; negative sign = inhibitory curve

Structure (SMILES) | CONFIRMATORY SCREEN Curve Class
Cc1ccccc1S(=O)(=O)Nc1cnccc1C(=O)Nc1nc(-c2ccccc2)cs1.O=C(O)C(F)(F)F [NCGC00344941-01] | -1.2
O=C(Nc1nc(-c2ccccc2)cs1)c1ccncc1NS(=O)(=O)c1ccccc1Cl.O=C(O)C(F)(F)F [NCGC00344943-01] | -1.1
Cc1cc(S(=O)(=O)Nc2cnccc2C(=O)Nc2nc(-c3ccccc3)cs2)c(C)o1.O=C(O)C(F)(F)F [NCGC00345029-01] | -1.1

same assay, conditions: confirmatory screen; negative = inhibition

Structure (SMILES) | CONFIRMATORY SCREEN Efficacy (%)
Cc1ccccc1S(=O)(=O)Nc1cnccc1C(=O)Nc1nc(-c2ccccc2)cs1.O=C(O)C(F)(F)F [NCGC00344941-01] | -59%
O=C(Nc1nc(-c2ccccc2)cs1)c1ccncc1NS(=O)(=O)c1ccccc1Cl.O=C(O)C(F)(F)F [NCGC00344943-01] | -98%
Cc1cc(S(=O)(=O)Nc2cnccc2C(=O)Nc2nc(-c3ccccc3)cs2)c(C)o1.O=C(O)C(F)(F)F [NCGC00345029-01] | -83%

same assay, conditions: qHTS primary screen hits, Table S2; negative = inhibition

Structure (SMILES) | Efficacy (%)
Cc1ccccc1S(=O)(=O)Nc1cnccc1C(=O)Nc1nc(-c2ccccc2)cs1.O=C(O)C(F)(F)F [NCGC00344941-01] | -51%

same assay, conditions: qHTS primary screen hits, Table S2; negative sign = inhibitory curve; several classes where COUNT > 1

Structure (SMILES) | Curve Class
Cc1ccccc1S(=O)(=O)Nc1cnccc1C(=O)Nc1nc(-c2ccccc2)cs1.O=C(O)C(F)(F)F [NCGC00344941-01] | -2.2

same assay, conditions: qHTS primary screen hits, Table S2; read-out: IC50

Structure (SMILES) | IC50
Cc1ccccc1S(=O)(=O)Nc1cnccc1C(=O)Nc1nc(-c2ccccc2)cs1.O=C(O)C(F)(F)F [NCGC00344941-01] | 44.7 µM

molecular target: T1, GST-CIB1 : F-scrambled peptide; assay: FP scrambled-peptide counter screen, 1536-well format; assay type: binding; details: scrambled-peptide counterscreen

Structure (SMILES) | COUNTERSCREEN Efficacy (%)
Cc1ccccc1S(=O)(=O)Nc1cnccc1C(=O)Nc1nc(-c2ccccc2)cs1.O=C(O)C(F)(F)F [NCGC00344941-01] | 10%
O=C(Nc1nc(-c2ccccc2)cs1)c1ccncc1NS(=O)(=O)c1ccccc1Cl.O=C(O)C(F)(F)F [NCGC00344943-01] | 25%
Cc1cc(S(=O)(=O)Nc2cnccc2C(=O)Nc2nc(-c3ccccc3)cs2)c(C)o1.O=C(O)C(F)(F)F [NCGC00345029-01] | 10%

same assay, conditions: scrambled-peptide counterscreen, YES/NO call

Structure (SMILES) | COUNTERSCREEN Confirm?
Cc1ccccc1S(=O)(=O)Nc1cnccc1C(=O)Nc1nc(-c2ccccc2)cs1.O=C(O)C(F)(F)F [NCGC00344941-01] | YES
O=C(Nc1nc(-c2ccccc2)cs1)c1ccncc1NS(=O)(=O)c1ccccc1Cl.O=C(O)C(F)(F)F [NCGC00344943-01] | YES
Cc1cc(S(=O)(=O)Nc2cnccc2C(=O)Nc2nc(-c3ccccc3)cs2)c(C)o1.O=C(O)C(F)(F)F [NCGC00345029-01] | YES

same assay, conditions: scrambled-peptide counterscreen, qHTS curve class

Structure (SMILES) | COUNTERSCREEN Curve Class
Cc1ccccc1S(=O)(=O)Nc1cnccc1C(=O)Nc1nc(-c2ccccc2)cs1.O=C(O)C(F)(F)F [NCGC00344941-01] | 4
O=C(Nc1nc(-c2ccccc2)cs1)c1ccncc1NS(=O)(=O)c1ccccc1Cl.O=C(O)C(F)(F)F [NCGC00344943-01] | 4
Cc1cc(S(=O)(=O)Nc2cnccc2C(=O)Nc2nc(-c3ccccc3)cs2)c(C)o1.O=C(O)C(F)(F)F [NCGC00345029-01] | 4
